Tested on: mice transplanted with MPN BM cells (JAK2-V617F)
Assay: In vivo pharmacological treatments of mice transplanted with MPN (Mx1-cre;JAK2-V617F) BM cells
Design: species or system mouse
Excerpt: In Mx1-cre; JAK2-V617F double-transgenic mice, expression of the human JAK2-V617F mutation is driven by the endogenous Jak2 promoter and can be conditionally expressed in haematopoietic cells upon Myxovirus resistance-1 (Mx1)-driven Cre recombinase activation by polyinosine-polycytosine (plpC). PlpC-induced transgenic mice and wild-type mice transplanted with BM cells from these mice develop progressive symptoms of PV19,20.
Age-matched, female wild-type C57BL/6J or Nes-gfp mice were used as recipients in bone marrow (BM) transplantation assays and for in vivo pharmacological treatments. […] Vehicle (saline solution) daily injections were performed in the same way. Unless indicated, treatment was initiated 4 weeks posttransplant, when animals evidenced peripheral blood signs of MPN. Mice were randomly distributed prior to treatment initiation, and disease development was monitored over time in peripheral blood samples, using an automated blood counter. […] The neuroprotective drug 4-methylcatechol (10 μg kg-1, i.p.) was injected once daily. The JAK inhibitor INCB018424 (S-Ruxilitinib, Abmole Bioscience) was administered by oral gavage (30 mg kg-1, twice per day separated 10-12 hours) in 0.5% hydroxypropylmethylcellulose (Sigma) after solubilisation in DMSO. The IL-1 receptor antagonist (Kineret, Sobi, Stockholm, Sweden) was administered by subcutaneous osmotic pumps (Alzet) infusing a continuous dosing of 40 mg kg-1 per day. Mice were sacrificed at different time points and subjected to complete necropsy; BM and spleen were analysed by histology and flow cytometry; femora and skull were used for immunostainings, and haematopoietic and stromal cells were additionally used for functional assays ex vivo.
BM cell extraction, flow cytometry and fluorescence-activated cell sorting For haematopoietic cell recovery, bones were crushed in a mortar, filtered through a 40-μm mesh to obtain single cell suspensions, and depleted of red blood cells by lysis in 0.15 M NH4Cl for 10 min at 4° C. Spleen samples were homogenised and filtered prior to lysis; blood samples were directly lysed. Cells (1-2×10^6 cells per sample) were incubated with the appropriate dilution (2-5 μg ml-1) of fluorescent antibody conjugates and 4′,6-diamidino-2-phenylindole (DAPI) for dead cell exclusion, and analysed on LSRFortessa flow cytometer (BD Biosciences, Franklin Lakes, N.J.) equipped with FACSDiva Software (BD Biosciences). […] Biotinylated antibodies were detected with fluorochrome-conjugated streptavidin (BD Biosciences). Phenotypic populations of HSC were defined as long-term haematopoietic stem cells (HSCs) (lin− Sca1+c-kit+ (LSK) CD34− Flt3−), short-term HSCs (LSK CD34+ Flt3−) and multipotent progenitors (MPP) (LSK CD34+ Flt3+).
Cells were filtered through a 40-μm mesh and erythrocytes were lysed as previously described. The resulting bone marrow-enriched cell suspensions were pelleted, washed and resuspended in PBS buffer containing 2% foetal calf serum (FCS) for further analyses. […] BM stromal CD45− CD31− Ter119− cells were further purified according to GFP fluorescence using a FACS Aria cell sorter (BD Bioscience). For the determination of apoptotic cells, samples were washed with PBS after surface antibody staining and subsequently stained with Annexin V-Pacific Blue and SYTOX AADvanced (Invitrogen, Life Technologies, Paisley, UK). For functional assays, cells were enriched by immunomagnetic depletion using biotinylated CD45 and Ter119. For immunophenotypic characterisation, total BM samples were studied by flow cytometry using the following additional antibodies: CD63 (NVG-2), CD105 (MJ7/18), CD140a (APA5), Vcam, CD51 (RMV-7), all from Biolegend; and CD90.2 from BD Biosciences.
Immunofluorescence staining of cryostat sections was performed. For whole mount staining of the calvaria, all incubation times were extended. The antibodies used were TH (Rabbit pAb, Millipore) and GFAP (Rabbit pAb, Dako).

[1] = advanced MPN, BRL37344 started upon thrombocytosis
[2] = symptomatic MPN mice, chronic BRL37344 2 mg kg-1 i.p. twice a day

Compound: C[C@H](Cc1ccc(OCC(=O)O)cc1)NC[C@H](O)c1cccc(Cl)c1 [BRL37344, [4-[(2R)-2-[[(2R)-2-(3-clorophenyl)-2-hydroxyethyl]amino]propyl]phenoxy]acetic acid]
- incipient MPN signs (haematological parameters) (8 weeks after transplantation, treatment for the last 4 weeks): improved
- IL-1β in BM supernatant (BRL37344, 4 weeks, FIG. 4e): reduced
- BM Nes-GFP+ cell number (BRL37344, 8 weeks, FIG. 4f): restored
- Cxcl12 levels in BM (BRL37344, 16 weeks, FIG. 4g): increased
- mutant haematopoietic progenitors (LSK cells, LT- and ST-HSCs) (BRL37344 administered at thrombocytotic stage, FIG. 4k): efficiently decreased
- MPN progression (BRL37344 or Mirabegron 2 mg kg-1 i.p. twice a day): blocks
- neuroglial gene expression (Mbp, Mobp, Pleckhb1 mRNA) in BM Nes-GFP+ cells from MPN mice (BRL37344 over 8 weeks, starting 4 weeks after transplantation): do not express
- Schwann cell program activation in BM nestin+ cells (BRL37344 over 8 weeks, starting 4 weeks after transplantation, FIG. 11c): blocked
- BM Schwann cells (Gfap immunostaining) [1]: rescued
- BM interleukin-1β [1]: reduced
- erythrocytosis [1]: reduced
- fibrosis and osteosclerosis [1]: reduced
- neutrophilia [1]: reduced
- thrombocytosis [1]: reduced
- BM fibrosis: excessive bone and fibroblastic tissue (reticulin, Van Gieson) (chronic BRL37344 versus vehicle-injected mice with severe fibrosis): virtually devoid of excessive bone and fibroblastic tissue
- mutant haematopoietic progenitor expansion (early treatment, 4 weeks, BRL37344 2 mg kg-1 twice a day, 4-methylcatechol 10 μg kg-1 once daily): prevented
- mutant haematopoietic progenitors (long-term BRL37344 treatment, 16 weeks): efficiently decreased
- JAK2-V617F+ HSC expansion (long-term BRL37344 treatment, 16 weeks, 2 mg kg-1 twice a day i.p.): inhibits
- MPN-associated thrombocytosis [2]: prevented
- red blood cell reduction [2]: delayed
- MPN-associated neutrophilia (symptomatic MPN mice, treatment started 4 weeks after transplantation, BRL37344 2 mg kg-1 i.p. twice a day, 4-methylcatechol 10 μg kg-1 i.p. once daily): prevented

— US10335380B2, “Compounds suitable for the treatment of myeloproliferative neoplasms as well as methods for the diagnosis/prognosis of myeloproliferative neoplasms” (CNIC Fundacion Centro Nacional De investigaciones …, priority 2013, dated 2019)
